In PMC8466373, “Plant-Derived and Dietary Hydroxybenzoic Acids—A Comprehensive Study of Structural, Anti-/Pro-Oxidant, Lipophilic, Antimicrobial, and Cytotoxic Activity in MDA-MB-231 and MCF-7 Cell Lines” (Nutrients, 2021):
≈ marks a conversion by molar mass, not a printed value. Like-named read-outs stand apart in the source and are kept apart here. Marks after values point to notes of the source that are not given here.

Assays:
[1] = FRAP assay (ferric-reducing antioxidant power); format: biochemical; design: key: (-): Negative values were obtained for these acids; details: concentration of 50 μM, methanolic solutions
Procedure: FRAP assay was carried out as described in [42]. […] After 8 min of incubation at 23 °C, the absorbance at 595 nm was measured against the blank (containing 0.4 mL of methanol instead of the sample). Ferric-reducing antioxidant activity was expressed as Fe(II) ion equivalents (μM) using the calibration curve obtained for FeSO4 (the standard curve equation: y = 3.4303x − 0.1058; R^2 = 0.9984).

[2] = test system: Salmonella enteritidis (NCTC 4776); assay: MIC by serial dilution in agar medium; format: cell-based; details: Salmonella enterica; Salmonella enteritidis; read-out: MIC
Procedure: (§1) The following bacterial strains were used in this study: Escherichia coli (PCM 2857), Pseudomonas aeruginosa (PCM 2720), Bacillus subtilis (PCM 2850), Staphylococcus aureus (PCM 2267), Salmonella enteritidis (NCTC 4776), and Candida albicans (PCM 2566-FY). The microbial strains were bought from the Polish Collection of Microorganisms (Wroclaw, Poland) or the American Type Culture Collection.
(§2) The MIC (minimal inhibitory concentration) was determined by serial dilution of the tested compound in an agar medium, to which the appropriate inoculum of microorganisms was then added and incubated. Escherichia coli, Pseudomonas aeruginosa, Staphylococcus aureus, Bacillus subtilis, Salmonella enteritidis, and Candida albicans were grown overnight and then resuspended in physiological saline to an optical density at 600 nm (OD = 600) of 0.60, corresponding to 5.0 × 10^8 CFU/mL. Bacteria (0.1 mL of the reconstituted suspension) were seeded onto sterile Mueller–Hinton agar plates, to which previously suitable amounts of the tested compounds were added to reach the desired concentration. Tested chemicals were dissolved in DMSO solution. Negative controls were agar plates, to which DMSO was added, while positive controls were plates with gentamycin (in the case of bacteria) or flucanozole (in the case of fungi). The plates were incubated at 37 °C for 24 h. The lowest concentration without visible bacterial growth was determined as the MIC.

[3] = test system: E. coli, P. aeruginosa, S. aureus, B. subtilis, S. enteritidis, and C. albicans; assay: MIC, stated for all tested strains together; format: cell-based; details: all of the tested strains
Procedure: as §1, with “Collection. Bacteria (0.1 mL of the reconstituted suspension) were seeded onto sterile Mueller–Hinton agar plates (Biomaxima), to which previously suitable amounts of the tested compounds were added to give the desired concentration.” for “Collection.”
as §2

[4] = Lipophilicity via RP-HPLC; format: physicochemical
Procedure: The analyses were carried out on the following chromatographic columns: RP-18e Purospher STAR (C18), 150 mm × 4.0 mm, 5 µm, (Merck, Darmstadt, Germany); RP-8e Purospher STAR (C8), 150 mm × 4.6 mm, 5 µm, (Merck, Darmstadt, Germany); Zorbax Eclipse XDB-CN (CN), 150 mm × 4.6 mm, 5 µm, (Agilent Technologies, Santa Clara, CA, USA); Nucleosil Phenyl (PHE), 250 mm × 4.6 mm, 7 µm, (Supelco, Bellefonte, PA, USA); and Regis Rexchrom IAM.PC.DD.2 (IAM), 100 mm × 4.6 mm, 10 µm, (Regis Technologies Inc., Morton Grave, IL, USA). The experimental conditions and the calculations were as described in [46].

[5] = ref 102; cited from earlier work
[6] = C = 0,001 mg/mL, λ = 593 nm, t = 30 min; cited from earlier work
[7] = CABTS = 7 mM, t = 6 min, ref 73; read-out: ABTS, IC50; cited from earlier work
[8] = cited from earlier work
[9] = test system: Staphylococcus aureus (PCM 2267); assay: MIC by serial dilution in agar medium; format: cell-based; details: read-out: MIC
Procedure: as §1, with “Collection. Bacteria (0.1 mL of the reconstituted suspension) were seeded onto sterile Mueller–Hinton agar plates (Biomaxima), to which previously suitable amounts of the tested compounds were added to give the desired concentration.” for “Collection.”
as §2

[10] = test system: Bacillus subtilis (PCM 2850); assay: MIC by serial dilution in agar medium; format: cell-based; details: read-out: MIC
Procedure: as §1, with “Collection. Bacteria (0.1 mL of the reconstituted suspension) were seeded onto sterile Mueller–Hinton agar plates (Biomaxima), to which previously suitable amounts of the tested compounds were added to give the desired concentration.” for “Collection.”
as §2

[11] = test system: Escherichia coli (PCM 2857); assay: MIC by serial dilution in agar medium; format: cell-based; details: read-out: MIC
Procedure: as §1, with “Collection. Bacteria (0.1 mL of the reconstituted suspension) were seeded onto sterile Mueller–Hinton agar plates (Biomaxima), to which previously suitable amounts of the tested compounds were added to give the desired concentration.” for “Collection.”
as §2

[12] = test system: Candida albicans (PCM 2566-FY); assay: MIC by serial dilution in agar medium; format: cell-based; details: read-out: MIC
Procedure: as §1, with “Collection. Bacteria (0.1 mL of the reconstituted suspension) were seeded onto sterile Mueller–Hinton agar plates (Biomaxima), to which previously suitable amounts of the tested compounds were added to give the desired concentration.” for “Collection.”
as §2

[13] = test system: Pseudomonas aeruginosa (PCM 2720); assay: MIC by serial dilution in agar medium; format: cell-based; details: read-out: MIC
Procedure: as §1, with “Collection. Bacteria (0.1 mL of the reconstituted suspension) were seeded onto sterile Mueller–Hinton agar plates (Biomaxima), to which previously suitable amounts of the tested compounds were added to give the desired concentration.” for “Collection.”
as §2

[14] = Cytotoxicity, neutral red (NR) assay; format: cell-based, human; details: human, 48 h treatment, neutral red assay
Procedure: Briefly, MCF-7 cells were cultured in EMEM (Biological Industries, Israel) medium supplemented with 10% fetal calf serum (Gibco). MDA-MB-231 cells were cultured in Leibovitz‘s L15 (Biological Industries, Beit HaEmek, Israel) medium supplemented with 10% fetal calf serum (Gibco). The MCF-7 cells were incubated in a 5% CO2 atmosphere at 37 °C, whereas the MDA-231 cells were incubated in a 100% air atmosphere at 37 °C.
Cytotoxicity evaluation was conducted to assess the impact of hydroxybenzoic acids on the proliferation of MCF-7 and MDA-MB-231 cells, which was measured via neutral red (NR) assay. In brief, cells were seeded in 96-well microplates (TPP, Switzerland) at a density of 2 × 10^4 cells/well in 100 μL of culture medium. At least three independent experiments in six replicate wells were conducted per concentration. Twenty-four hours after cell seeding, cells were treated with increasing concentrations of hydroxybenzoic acids (0.02–5 mM) for forty-eight hours. After treatment, cells were incubated for 3 h at 37 °C with 100 µL of neutral red solution (stock solution of NR) (Sigma-Aldrich), and then 5 mg/mL of PBS was diluted 1:100 in cell culture medium, incubated for 12 h at 37 °C, and centrifuged to remove any undissolved NR powder. […] After 15 min of gentle shaking, optical density was read at 540 nm with an Infinite M200 plate reader spectrophotometer (Tecan, Austria).

ABTS assay = format: biochemical; details: 50 μM, methanolic solutions, 7 min of reaction time
Procedure: ABTS assay was conducted according to the procedure of Re et al.. […] The absorbance of the solutions was measured with a UV–Vis spectrophotometer at 734 nm against methanol (the blank). The ability to scavenge ABTS^•+ cation radicals was expressed as the %I of ABTS^•+ and calculated according to the aforementioned equation.

**Q.** Which FRAP [1] does the source give for `O=C(O)c1ccc(O)cc1O` [2,4-DHB, 2,4-Dihydroxybenzoic acid] here?
**A.** (-) *

**Q.** What about the MIC [2] of the same compound?
**A.** 2000 µg/mL (≈ 13 mM)

**Q.** And the MIC [3]?
**A.** 2000 µg/mL (≈ 13 mM)

**Q.** What about the log kw ([4]; C8 column) of the same compound?
**A.** 1.81

**Q.** And the ϕ0 ([4]; C8 column)?
**A.** 1.38

**Q.** And the log kw ([4]; C18 column)?
**A.** 2.66

**Q.** And the ϕ0 ([4]; C18 column)?
**A.** 0.57

**Q.** And the log kw ([4]; CN column)?
**A.** 2.06

**Q.** And the ϕ0 ([4]; CN column)?
**A.** 1.15

**Q.** What about the log kw ([4]; IAM column) of the same compound?
**A.** 1.14

**Q.** And the ϕ0 ([4]; IAM column)?
**A.** 1.00

**Q.** And the log kw ([4]; PHE column)?
**A.** 1.39

**Q.** What about the ϕ0 ([4]; PHE column) of the same compound?
**A.** 1.05

**Q.** And the LogPexp. [5]?
**A.** 1.63 [102]

**Q.** And the FRAP [6]?
**A.** ≈ 0.012 (C = 0,001 mg/mL), λ = 593 nm, t = 30 min) [73] μM Fe^2+

**Q.** And the IC50 [7]?
**A.** 0.169 mM

**Q.** What about the pKaexp. ([8]; at 25 °C) of the same compound?
**A.** 3.11

**Q.** What about the pKaexp. ([8]; ref 104) of the same compound?
**A.** 3.11

**Q.** And the pKaexp. ([8]; ref 105)?
**A.** 3.1

**Q.** And the MIC [9]?
**A.** 2000 µg/mL (≈ 13 mM)

**Q.** And the MIC [10]?
**A.** 2000 µg/mL (≈ 13 mM)

**Q.** And the MIC [11]?
**A.** 2000 µg/mL (≈ 13 mM)

**Q.** And the MIC [12]?
**A.** 2000 µg/mL (≈ 13 mM)

**Q.** What about the MIC [13] of the same compound?
**A.** 2000 µg/mL (≈ 13 mM)

**Q.** What about the IC50 at 48 h ([14]; read-out: Cytotoxicity (mM) in Cell Line MCF-7, IC50) of the same compound?
**A.** > 5 mM

**Q.** And the IC50 at 48 h ([14]; read-out: Cytotoxicity (mM) in Cell Line MDA-MB-231, IC50)?
**A.** 4.77 mM

**Q.** What about the “Inhibition of ABTS•+ radicals (%I)” value (ABTS assay) of the same compound?
**A.** 16.17%
